In US20080210174A1, “Increasing the Protein Concentration of Animal Organisms” (BASF AKTIENGESELLSCHAFT, priority 2004, published 2008):

Experiments:
[1] = tested on: mice (type CD-1M (ICR) BR); assay: Feeding experiment in mice: whole body crude protein, crude fat, P/F quotient, feed intake, weight gain; assay type: in vivo; settings: 21 days; for Body fat / Body protein / P/F quotient: mice
Protocol: 1. Determination of Whole Body Crude Protein • 1) Method for determining the content of crude protein in mice from the nitrogen content, modified according to Kjeldahl (Kjeldahl, J.: Z. anal. Chem. 22, 366-382. 1883). • 2) Principle • The experimental animals were slaughtered and after removing the gastrointestinal tract, the weight of the animals was determined by weighing. The experimental animals were then shock-frozen in liquid nitrogen and homogenized. The resultant samples were subjected to wet digestion. The acidic digest was made alkaline with sodium hydroxide solution. The ammonia released was removed by distillation and collected in a defined amount of sulfuric acid, the excess of which was titrated with sodium hydroxide solution. • 3) Reagents • 3.1) Potassium sulfate, analytical grade • 3.2) Catalyst: copper(II) oxide, CuO, analytical grade, or crystalline copper sulfate, CuSO4.5H2O, analytical grade, or mercury, or mercury oxide, HgO, analytical grade. • 3.3) Sulfuric acid; analytical grade, D 1.84 • 3.4) Pumice stone, granulated, washed with hydrochloric acid and ignited • 3.5) Zinc, analytical grade, granulated • 3.6) Sulfuric acid, 0.1 N; • 3.7) Sulfuric acid, 0.5 N • 3.8) Methyl red indicator: 300 mg of methyl red are dissolved in 100 ml of ethanol, from 94 to 96% strength (VN). • 3.9) Sodium hydroxide solution, analytical grade, 40% strength (WN) • 3.10) Sodium sulfide solution, analytical grade, saturated • 3.11) Sodium thiosulfate solution, 8% strength (WN), Na2S2O3.5H2O, analytical grade • 3.12) Sodium hydroxide solution, 0.1 N; • 3.13) Sodium hydroxide solution, 0.25 N • 4) Apparatus • Digestion apparatus and distillation apparatus according to Kjeldahl (see above); • 5) Digestion • 1 g of the sample was weighed out accurately to 1 mg and placed in the flask of the digestion apparatus. 10 g of potassium sulfate […], a suitable amount of the catalyst (3.2) (from 0.3 to 0.4 g of copper oxide or from 0.9 to 1.2 g of copper sulfate or one drop of mercury or from 0.6 to 0.7 g of mercury oxide), 25 ml of sulfuric acid (3.3) and a few grains of pumice (3.4) were added and the flask contents were mixed. The flask was first heated moderately, then, with shaking from time to time, heated up to carbonization of the substance and disappearance of the foam, and finally intensively up to the uniform boiling of the liquid. Superheating of the flask walls and deposition of organic parts onto the flask walls was avoided. As soon as the solution was clear and colorless (light green when a copper-containing catalyst is used), this was kept boiling for a further 1 hour; thereafter it was allowed to cool. • 6) Distillation • With continuous swirling, from 250 to 356 ml of water were added with care, in which case the sulfates should dissolve completely. The mixture was allowed to cool; then some zinc granules (3.5) were added. Between 10 ml and 25 ml of sulfuric acid (3.6) or (3.7), depending on the expected nitrogen content, and a few drops of methyl red indicator (3.8) were added to the distillation apparatus collection flask. The flask was connected to the condenser of the distillation apparatus and its outermost end was lowered at least 1 cm deep into the liquid of the collection flask. 100 ml of sodium hydroxide solution (3.9) were slowly charged via the stopcock funnel into the distillation flask. When a mercury catalyst is used, in addition, 10 ml of sodium sulfide solution (3.10) or 25 ml of sodium thiosulfate solution (3.11) were added to the distillation flask. The flask is heated in such a manner that, in 30 min, about 150 ml of the liquid had distilled off. After the expiry of this time, the neutral reaction of the overhead distillate was controlled using litmus paper. If the reaction was alkaline, the distillation was continued. […] During the distillation operation, the contents of the collection flask were swirled from time to time and its color was observed. […]

[2] = tested on: conversion of carbohydrates to fatty acids; settings: rats on a low-fat, carbohydrate-rich diet; cited from earlier work
[3] = target: T1, human cytosol malate enzyme (Homo sapiens, UniProt P48163); settings: cited from earlier work
T1 sequence (P48163 1-572): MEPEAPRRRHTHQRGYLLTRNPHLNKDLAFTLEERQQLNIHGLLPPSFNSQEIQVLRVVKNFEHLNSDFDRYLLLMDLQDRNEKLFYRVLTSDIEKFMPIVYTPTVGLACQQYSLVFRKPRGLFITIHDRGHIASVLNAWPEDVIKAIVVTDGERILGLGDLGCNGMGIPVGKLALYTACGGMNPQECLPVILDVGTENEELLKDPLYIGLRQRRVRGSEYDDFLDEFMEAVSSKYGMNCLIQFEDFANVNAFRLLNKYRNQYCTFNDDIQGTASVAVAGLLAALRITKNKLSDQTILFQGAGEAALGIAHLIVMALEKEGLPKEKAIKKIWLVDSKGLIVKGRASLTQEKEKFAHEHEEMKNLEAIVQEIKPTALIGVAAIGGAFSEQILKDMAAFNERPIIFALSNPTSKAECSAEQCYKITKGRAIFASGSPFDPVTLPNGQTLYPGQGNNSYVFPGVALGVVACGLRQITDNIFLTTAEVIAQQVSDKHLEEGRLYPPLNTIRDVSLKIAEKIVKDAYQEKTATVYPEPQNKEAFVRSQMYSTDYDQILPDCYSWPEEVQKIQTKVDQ

[4] = target: human mitochondrial malate enzyme (Homo sapiens, UniProt P23368); settings: cited from earlier work
malate enzyme = malate enzyme from Mucor circinelloides; cited from earlier work
malate dehydrogenase = malate dehydrogenase from Mucor circinelloides; cited from earlier work
ATP:citrate lyase = ATP:citrate lyase from Mucor circinelloides; cited from earlier work
Mucor circinelloides = settings: fungus Mucor circinelloides; cited from earlier work
[5] = animals fed with tartronic acid (0.25% and 0.75% of feed) vs control

Sequence of human mitochondrial malate enzyme (P23368 19-584): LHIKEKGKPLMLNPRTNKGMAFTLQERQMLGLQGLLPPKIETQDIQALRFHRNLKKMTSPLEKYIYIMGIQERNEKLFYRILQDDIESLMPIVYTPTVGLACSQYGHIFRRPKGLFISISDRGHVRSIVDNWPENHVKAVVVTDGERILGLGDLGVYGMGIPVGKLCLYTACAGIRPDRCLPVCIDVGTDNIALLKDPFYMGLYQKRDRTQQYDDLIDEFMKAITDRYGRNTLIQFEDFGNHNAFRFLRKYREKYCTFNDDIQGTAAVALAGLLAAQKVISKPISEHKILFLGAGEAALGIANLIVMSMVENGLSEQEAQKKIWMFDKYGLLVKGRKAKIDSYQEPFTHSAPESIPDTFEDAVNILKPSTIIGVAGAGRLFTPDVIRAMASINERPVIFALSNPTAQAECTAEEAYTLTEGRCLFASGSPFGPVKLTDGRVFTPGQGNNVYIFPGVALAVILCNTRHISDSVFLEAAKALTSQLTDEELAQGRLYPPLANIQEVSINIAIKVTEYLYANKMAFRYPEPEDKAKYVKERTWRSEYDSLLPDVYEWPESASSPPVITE

Question: With `O=C(O)C(O)C(=O)O` [Tartronic acid, tartronic acid] as the compound, how does the Body fat ([1]; 0.25% by weight of the feed) read?
Answer: 20.25 % by weight of body weight

Question: What about the Body protein ([1]; 0.25% by weight of the feed) of the same compound?
Answer: 65.93 % by weight of body weight

Question: And the P/F quotient ([1]; 0.25% by weight of the feed)?
Answer: 3.53

Question: What about the Body fat ([1]; 0.75% by weight of the feed) of the same compound?
Answer: 20.65 % by weight of body weight

Question: What about the Body protein ([1]; 0.75% by weight of the feed) of the same compound?
Answer: 66.04 % by weight of body weight

Question: And the P/F quotient ([1]; 0.75% by weight of the feed)?
Answer: 3.28

Question: What about the “P/F quotient, change” value [1, 5] of the same compound?
Answer: increase in the P/F quotient

Question: And the “PPTW (percentage protein of total weight), change” value [1, 5]?
Answer: increase in the PPTW

Question: And the “effect on conversion of carbohydrates to fatty acids” value [2]?
Answer: inhibits the conversion of carbohydrates to fatty acids

Question: What about the “inhibitory activity on enzyme” value [3] of the same compound?
Answer: direct inhibitory activity

Question: What about the “inhibitory activity on enzyme” value [4] of the same compound?
Answer: direct inhibitory activity

Question: What about the “inhibitory activity on enzyme” value (malate enzyme) of the same compound?
Answer: direct inhibitory activity

Question: What about the “inhibitory activity on enzyme” value (malate dehydrogenase) of the same compound?
Answer: direct inhibitory activity

Question: What about the “inhibitory activity on enzyme” value (ATP:citrate lyase) of the same compound?
Answer: direct inhibitory activity

Question: What about the “in vivo inhibitory activity, effect on lipid metabolism” value (Mucor circinelloides) of the same compound?
Answer: not sufficient to have a detectable effect on lipid metabolism
